How the values were obtained:
Type in all cases: cell-based
MCF-7 = test: Cancer cell growth inhibition, MCF-7; conditions: Homo sapiens, MCF7; Breast, MCF-7, cell viability, 72 h
Experimental: (§1) Cell culture-based assays were used to evaluate the ability of compounds of the invention to inhibit cancer cell growth inhibition.
(§2) Cells were obtained from the American Type Culture Collection (ATCC) and European Collection of Cell Cultures (ECACC).
(§3) Cells were thawed in their appropriate media plus supplements (see table below). Cells were passaged at confluence by washing once in HBSS cation-free followed by a 3 minutes incubation with trypsin ([0.5 μg/ml]/EDTA [0.2 μg/ml]) (Gibco-BRL, 15400054) solution in HBSS at 37° C. (except non-adherent cell lines), and transferred to their appropriate media plus supplements. Prior to seeding at defined cell concentration, cells were recovered in medium, centrifuged and taken up in medium, and counted.
(§4) Cells were plated at 3000/5000/10000 cells/well in 100 μl media in tissue culture 96 well plates (Cultek). After 24 h, media was supplemented by 100 μl/well of diluted IPDNs at 100 μM.
(§5) The Hexosaminidase assay was used for the adherent cell lines, whereas the AlamarBlue® assay was used for the non-adherent cell lines.
(§6) Dose-response curves were generated by serial dilutions (1:1) of the compounds. […] Reagent blanks, containing media plus colorimetric reagent without cells were run on each plate. Blank values were subtracted from test values and were routinely 5-10% of uninhibited control values. Plates were incubated 72 h, and living cell number was determined by AlamarBlue® and Hexosaminidase test. The advantages of using those assays are that both can be done in the same microwell plate. AlamarBlue® assay: plates were incubated 72 h and living cell number was determined by AlamarBlue (Biosource DAL1100). After 4 h incubation at 37° C., relative fluorescent intensity, which correlates with the number of living cells, was read in a Cytofluor plate reader (Millipore) at 535/590 nm (Excitation/emission). The hexosaminidase activity was measured according to the following protocol: the media was removed and cells were washed once with PBS.
(§7) Data analysis was done by calculating the percentage of cell viability normalized in front of negative control values, which were considered as a 100%. The curve was adjusted using a sigmoidal dose-response (variable slope) equation and EC50 values were obtained from the equation
(§8) where, X is the logarithm of concentration. Y is the response. Bottom is the Y value at the bottom plateau Top is the Y value at the top plateau LogEC50 is the X value when the response is halfway between Bottom and Top. With different kinds of variables, this variable is sometimes called ED50 (effective dose, 50%), or IC50 (inhibitory concentration, 50%, used when the curve goes downhill).

SK-BR-3 = test: Cancer cell growth inhibition, SK-BR-3; conditions: Homo sapiens; Breast, SK-BR-3, cell viability, 72 h
Experimental: as §1, §2, §3, §4, §5
as §6, with “PBS. […]” for “PBS.”

PC3 = test: Cancer cell growth inhibition, PC3; conditions: Homo sapiens, PC-3; Prostate, PC3, cell viability, 72 h
Experimental: as §1, §2, §3, §4, §5, §6, §7, §8

LnCaP = test: Cancer cell growth inhibition, LnCaP; conditions: Homo sapiens, Prostate, cell viability, 72 h
Experimental: as §1, §2, §3, §4, §5, §6, §7, §8

HCT-116 = test: Cancer cell growth inhibition, HCT-116; conditions: Homo sapiens; Colorectal, HCT-116, cell viability, 72 h
Experimental: as §1, §2, §3, §4, §5, §6, §7, §8

HT-29 = test: Cancer cell growth inhibition, HT-29; conditions: Homo sapiens; Colorectal, HT-29, cell viability, 72 h
Experimental: as §1, §2, §3, §4, §5
as §6, with “PBS. […]” for “PBS.”

LoVo = test: Cancer cell growth inhibition, LoVo; conditions: Homo sapiens, Colorectal, cell viability, 72 h
Experimental: as §1, §2, §3, §4, §5
as §6, with “PBS. […]” for “PBS.”

A-549 = test: Cancer cell growth inhibition, A-549; conditions: Homo sapiens, A549; Lung, A-549, cell viability, 72 h
Experimental: as §1, §2, §3, §4, §5, §6, §7, §8

NCI-H1650 = test: Cancer cell growth inhibition, NCI-H1650; conditions: Homo sapiens; Lung, NCI-H1650, cell viability, 72 h
Experimental: as §1, §2, §3, §4, §5
as §6, with “PBS. […]” for “PBS.”

SK-HEP-1 = test: Cancer cell growth inhibition, SK-HEP-1; conditions: Homo sapiens, SK-HEP1; Liver, SK-HEP-1, cell viability, 72 h
Experimental: as §1, §2, §3, §4, §5
as §6, with “PBS. […]” for “PBS.”

HT-1080 = test: Cancer cell growth inhibition, HT-1080; conditions: Homo sapiens; HT-1080, cell viability, 72 h
Experimental: as §1, §2, §3, §4, §5, §6, §7, §8

MiaPaCa-2 = test: Cancer cell growth inhibition, MiaPaCa-2; conditions: Homo sapiens, MIA PaCa-2; Pancreatic, MiaPaCa-2, cell viability, 72 h
Experimental: as §1, §2, §3, §4, §5, §6, §7, §8

BxPC3 = test: Cancer cell growth inhibition, BxPC3; conditions: Homo sapiens, BXPC-3; Pancreatic, BxPC3, cell viability, 72 h
Experimental: as §1, §2, §3, §4, §5
as §6, with “PBS. […]” for “PBS.”

RWPI = test: Cancer cell growth inhibition, RWPI; conditions: Pancreatic, cell viability, 72 h
Experimental: as §1, §2
as §3, with “counted. […]” for “counted.”
Dose-response curves were generated by serial dilutions (1:1) of the compounds. […] Plates were incubated 72 h, and living cell number was determined by AlamarBlue® and Hexosaminidase test. […] AlamarBlue® assay: plates were incubated 72 h and living cell number was determined by AlamarBlue (Biosource DAL1100). After 4 h incubation at 37° C., relative fluorescent intensity, which correlates with the number of living cells, was read in a Cytofluor plate reader (Millipore) at 535/590 nm (Excitation/emission). The hexosaminidase activity was measured according to the following protocol: the media was removed and cells were washed once with PBS. […]

MDA-MB-435 = test: Cancer cell growth inhibition, MDA-MB-435; conditions: Homo sapiens; Melanoma, MDA-MB-435, cell viability, 72 h
Experimental: as §1, §2, §3, §4, §5, §6, §7, §8

SK-MEL-28 = test: Cancer cell growth inhibition, SK-MEL-28; conditions: Homo sapiens; Melanoma, SK-MEL-28, cell viability, 72 h
Experimental: as §1, §2, §3, §4, §5
as §6, with “PBS. […]” for “PBS.”

143B = test: Cancer cell growth inhibition, 143B; conditions: Homo sapiens, Osteosarcoma, cell viability, 72 h
Experimental: as §1, §2, §3, §4, §5, §6, §7, §8

U-87MG = test: Cancer cell growth inhibition, U-87MG; conditions: Homo sapiens, Brain, cell viability, 72 h
Experimental: as §1, §2, §3, §4, §5, §6, §7, §8

SK-OV-3 = test: Cancer cell growth inhibition, SK-OV-3; conditions: Homo sapiens; Ovarian, SK-OV-3, cell viability, 72 h
Experimental: as §1, §2, §3, §4, §5
as §6, with “PBS. […]” for “PBS.”

HeLa = test: Cancer cell growth inhibition, HeLa; conditions: Homo sapiens, Cervical, cell viability, 72 h
Experimental: as §1, §2, §3, §4, §5
as §6, with “PBS. […]” for “PBS.”

A-431 = test: Cancer cell growth inhibition, A-431; conditions: Homo sapiens; Epidermoid, A-431, cell viability, 72 h
Experimental: as §1, §2, §3, §4, §5, §6, §7, §8

CCFR-CEM = test: Cancer cell growth inhibition, CCFR-CEM; conditions: Hematologic, cell viability, 72 h
Experimental: as §1, §2, §3, §4, §5, §6, §7, §8

Jurkat = test: Cancer cell growth inhibition, Jurkat; conditions: Homo sapiens, Hematologic, cell viability, 72 h
Experimental: as §1, §2, §3, §4, §5, §6, §7, §8

K562 = test: Cancer cell growth inhibition, K562; conditions: Homo sapiens; Hematologic, K562, cell viability, 72 h
Experimental: as §1, §2, §3, §4, §5
as §6, with “PBS. […]” for “PBS.”

RAMOS = test: Cancer cell growth inhibition, RAMOS; conditions: Homo sapiens, Hematologic, cell viability, 72 h
Experimental: as §1, §2, §3, §4, §5, §6, §7, §8

RPMI-8226 = test: Cancer cell growth inhibition, RPMI-8226; conditions: Homo sapiens; Multiple Myelome, RPMI-8226, cell viability, 72 h
Experimental: as §1, §2, §3, §4, §5, §6, §7, §8

EC50 (MCF-7) [µM]	EC50 (SK-BR-3) [µM]	EC50 (PC3) [µM]	EC50 (LnCaP) [µM]	EC50 (HCT-116) [µM]	EC50 (HT-29) [µM]	EC50 (LoVo) [µM]	EC50 (A-549) [µM]	EC50 (NCI-H1650) [µM]	EC50 (SK-HEP-1) [µM]	EC50 (HT-1080) [µM]	EC50 (MiaPaCa-2) [µM]	EC50 (BxPC3) [µM]	EC50 (RWPI) [µM]	EC50 (MDA-MB-435) [µM]	EC50 (SK-MEL-28) [µM]	EC50 (143B) [µM]	EC50 (U-87MG) [µM]	EC50 (SK-OV-3) [µM]	EC50 (HeLa) [µM]	SMILES	further results
6.2	3.8	51	4.8	5.7	11	12	11	11	31	9.7	5.5	15	25	4.3	4.8	19	13	4.1	6.9	COc1cc(OC)c2c(-c3ccc(O)cc3)cn(CC(=O)c3ccc(O)cc3)c2c1 [Example 6, 1-(4-hydroxyphenyl)-2-[3-(4-hydroxyphenyl)-4,6-dimethoxy-1H-indol-1-yl]ethanone]	EC50 (A-431): 11 µM; EC50 (CCFR-CEM): 6.3 µM; EC50 (Jurkat): 1.9 µM; EC50 (K562): 13 µM; EC50 (RAMOS): 6.6 µM; EC50 (RPMI-8226): 6.4 µM
41	59	83	43	37	66	50	39	76	35	52	61	34	46	57	59	31	95	44	68	O=C(Cn1cc(-c2ccc(O)cc2)c2c(F)cc(F)cc21)c1ccc(O)cc1 [Example 16, 2-[4,6-difluoro-3-(4-hydroxyphenyl)-1H-indol-1-yl]-1-(4-hydroxyphenyl) ethanone]	EC50 (A-431): 66 µM; EC50 (CCFR-CEM): 57 µM; EC50 (Jurkat): 30 µM; EC50 (K562): 51 µM; EC50 (RAMOS): 35 µM; EC50 (RPMI-8226): 65 µM

Reference: patent US20150336889A1, “INDOLE DERIVATIVES, PHARMACEUTICAL COMPOSITIONS CONTAINING SUCH INDOLES AND THEIR USE AS DNA METHYLATION MODULATORS” (IKERCHEM, S.L., priority 2012, published 2015)
